Experimental data taken from patent US4980349A, “Sulphonamides derived from diarylmethanes, the processes for preparing them and pharmaceutical compositions containing them” (SANOFI, priority 1986, dated 1990).

Assays:
[1] = system: pain threshold of brewer's yeast inflamed rat hind foot; test: Randall and Sellitto's test (analgesic activity); assay type: in vivo; conditions: first experiment, Table XII, read-out: percentage increase in the mean pain threshold; for change in vivo at 25 mg/kg: 25 mg/kg oral; for change in vivo at 50 mg/kg: 50 mg/kg oral; for change in vivo at 100 mg/kg: 100 mg/kg oral
Method in brief: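 Rats had 0.1 ml 20% brewer's yeast suspension injected under the hind-foot plantar aponeurosis; compounds dosed orally by stomach tube 1 h before yeast. Pain threshold was the pressure eliciting foot withdrawal, read at the 4–6 h plateau; result is % increase in mean threshold versus untreated controls, 10 rats per group.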

[2] = Oral LD50 in mice; conditions: mouse, in vivo, female Swiss CF mice, 20 g, 14 days observation, read-out: approximate oral LD50
Experimental: (§1) The compounds were suspended in a 3% strength solution of gum arabic so as to supply, in a volume of 2 ml for the rats, the equivalent of 50, 100, 200, 400 and 800 mg/kg, and, in a volume of 1 ml for the mice, 100, 200, 400, 800 and 1,600 mg/kg and, for 1573 and 1579, 3,200 mg/kg.
(§2) Gavage was performed by means of a metal tube, on batches of 5 animals for each series.
(§3) The animals were observed daily for 14 days.

[3] = system: foreign-body (sponge) granuloma in rats; test: Experimental granuloma induced by foreign body, histological study; assay type: in vivo, Wistar rats; conditions: both doses (50 and 100 mg/kg) oral, 8 days; Table XI
Experimental: This test consists in studying the subacute cellular phase which is developed in the 8 days which follow the implantation of a foreign body, a sponge of non-resorbable plastic, in the dorsal subcutaneous connective tissue in rats.
The granulomas formed are removed 8 days after the implantation; a histological study is carried out after fixing the tissue and staining sections with hematein/ eosin. The observation is more especially concerned with the cell population of the primary phase of the formation of the granulation tissue: the reticulohistocytic cells, lymphocytes and more especially the macrophages.
The animals used are Wistar rats weighing 120-140 g and of the same origin, maintained under the same conditions of housing throughout the treatment (8 days).
The compounds of the invention are administered orally, in a gum suspension, in the morning in a fasted state, using an oesophageal tube.
After 8 days of treatment, the rats are sacrificed by decapitation and the granulomas removed and prepared for the purpose of histological examination.
The experiment conditions are as follows:
The animals are distributed in batches of 10;
Each test product is administered at 2 doses, of 50 and 100 mg, respectively, to 2 batches of 10 animals;
Ketoprofen is used by way of reference product at the same 2 doses and under the same conditions; and
A batch of 10 control animals receives no treatment.
In this experiment, on the one hand a histological study of the granulomas is performed by sampling on day 8 (results recorded in Table XIa), and on the other hand a study of the weight of the granulomas was performed 10 days after the implantation (results recorded in Table XIb).

[4] = system: rat hind foot kaolin-induced oedema; test: Kaolin-induced arthritis test, first experiment (decrease in inflammation, foot volume); assay type: in vivo; conditions: 1 h before kaolin, Table IX, read-out: percentage decrease in the inflammation; for change in vivo at 25 mg/kg: 25 mg/kg oral; for change in vivo at 50 mg/kg: 50 mg/kg oral; for change in vivo at 100 mg/kg: 100 mg/kg oral
Experimental: The […] of 0.05 ml of a sterile 10% strength suspension of kaolin into the metatarsal flexor sheath of the hind foot of a rat initially induces an oedematous reaction. An inflammatory arthritis then forms.
The early oedematous reaction appears from the first hour, and reaches its maximum between the fourth hour and the sixth hour. This is the manifestation of interest. The assessment of the volume of the foot enables the action of substances on the oedematous reaction to be studied. The measurements are carried out using a Giono and Chevilard plethysmometer.
The test products are administered orally (stomach tube) one hour before the injection of the kaolin.
The results are expressed as a percentage decrease in the inflammation in the treated animals compared with a control series of animals.
The batches are of 10 animals per dose and 10 control animals.
The figures shown represent the mean of 10 animals.

[5] = system: rat hind foot carragheenin-induced oedema; test: Carragheenin-induced oedema test; assay type: in vivo; conditions: 3 h, first experiment, Table X, read-out: percentage inhibition of the inflammation; for change in vivo at 25 mg/kg: 25 mg/kg oral; for change in vivo at 50 mg/kg: 50 mg/kg oral; for change in vivo at 100 mg/kg: 100 mg/kg oral
[6] = Oral LD50 in rats; conditions: rat, in vivo, male Wistar rats, 200-400 g, 14 days observation, read-out: approximate oral LD50
Experimental: as §1, §2, §3

[7] = system: biosynthesis of leukotrienes C4 (LTC4), human polymorphonuclear leukocytes; test: LTC4 production in human polymorphonuclear leukocytes; assay type: cell-based; conditions: Leukocyte, 0.25 h, ionophore A 23187 5 μM, 15 min, 37° C., read-out: IC50, inhibition of the production of LTC4
Experimental: Human polymorphonuclear Leukocytes are stimulated by calcium ionophore A 23187 (Calbiochem, 5 μM), in the presence or absence of the test products.
After 15 minutes' incubation at 37° C., assay of the leukotrienes C4 (LTC4) is performed radioimmunologically.
The results are expressed as IC50, the concentration producing 50% inhibition of the production of LTC4, by comparison with a control suspension which has not been incubated in the presence of the test products.

[8] = system: prostacyclin synthetase; test: PGI2 production in human glomeruli (renal preparation model); assay type: cell-based; conditions: arachidonic acid 5 ug/ml
Experimental: (§4) Human glomeruli synthesize both thromboxanes, via thromboxane synthetase, and prostaglandins, via prostacyclin synthetase. The experiment consists in stimulating glomerular cells with arachidonic acid (5 ug/ml) and in assaying radioimmunologically the amount of thromboxane B2 (TXB2) and prostacyclin (PGI2) produced in the presence of increasing concentrations of test products (10^-6 M to 5×10^-5 M).
(§5) As for the previous model, the results are expressed as IC50 in comparison with a control suspension.

[9] = system: 5-lipoxygenase; test: Production of LTB4 and 5-HETE by human leukocytes incubated with arachidonic acid; assay type: cell-based; conditions: ionophore A 23187 5 μM, arachidonic acid 10 μg/ml
Experimental: Human polymorphonuclear leukocytes suspended with arachidonic acid and stimulated by calcium ionophore produce leukotrienes B4 (LTB4).
The test consists in incubating fresh human leukocytes with arachidonic acid at a dose of 10 μg/ml to which a tracer dose of tritium-labelled arachidonic acid has been added. The leukocytes are stimulated with calcium ionophore A 23187 (Calbiochem, 5 μM) and the amount of 5-hydroxyeicosatetraenoic acid (5-HETE) and LTB4 produced is then assayed by HPLC.
5-HETE is the metabolite produced from arachidonic acid by 5-lipoxygenase, and from which LTB4 is produced by the action of an isomerase.
The results are expressed as an integration of the surface of the peak obtained in HPLC by comparison with that obtained with control leukocytes which have not been incubated with the test products.
The results in brackets are expressed as a percentage inhibition of the production of 5-HETE and LTB4.

[10] = system: thromboxane synthetase; test: TXB2 production in human glomeruli (renal preparation model); assay type: cell-based; conditions: arachidonic acid 5 ug/ml
Experimental: as §4, §5

[11] = system: thromboxane synthetase; test: TXB2 production in human platelet suspension (thromboxane synthetase); assay type: cell-based; conditions: human platelets, arachidonic acid 5 μg/ml, 37° C., read-out: IC50, inhibition of the production of TXB2
Experimental: The platelets are incubated with arachidonic acid (5 μg/ml) in the presence of increasing doses of test products (10^-6l M to 5×10^-5 M). Platelets stimulated by arachidonic acid (AA) manufacture a large amount of thromboxane A2 (TXA2), which can be measured radioimmunologically in the form of a stable metabolite TXB2.
The assay of the amount of TXB2 in the medium is performed after a 1- to 15- minute incubation at 37° C., the measurements being made in comparison with a control suspension which has not been incubated with the test products.
Results: These are expressed as IC50, that is to say as the concentration of the test product which permits 50% inhibition of the production of TXB2.

| SMILES | change in vivo at 25 mg/kg [1] [%] | change in vivo at 50 mg/kg [1] [%] | change in vivo at 100 mg/kg [1] [%] | LD50 at 336 h [2] [mg/kg] | histological study of the granuloma [3] | change in vivo at 25 mg/kg [4] [%] | change in vivo at 50 mg/kg [4] [%] | change in vivo at 100 mg/kg [4] [%] | change in vivo at 25 mg/kg [5] [%] | change in vivo at 50 mg/kg [5] [%] | change in vivo at 100 mg/kg [5] [%] | LD50 at 336 h [6] [mg/kg] | IC50 [7] [nM] | IC50 [8] [nM] | 5-HETE, integration of the surface of the HPLC peak [9] | IC50 [10] [nM] | IC50 [11] [nM] |
| --- | --- | --- | --- | --- | --- | --- | --- | --- | --- | --- | --- | --- | --- | --- | --- | --- | --- |
| O=C(O)CCCNS(=O)(=O)c1ccc(Cl)cc1C(=O)c1ccccc1Cl [Compound 1573] | 20 | 35 | 60 | > 3200 | the activity is very distinct | -15 | -30 | -52 | -17 | -28 | -50 |  |  |  |  |  |  |
| O=C(c1ccccc1)c1cc([N+](=O)[O-])ccc1S(=O)(=O)NCCCN1CCOCC1 [Compound 1361] | 20 | 25 | 45 | > 1600 | anti-inflammatory activity is exhibited | -25 | -30 | -48 | -15 | -25 | -45 | > 800 |  |  |  |  |  |
| O=C(c1ccccc1)c1ccccc1S(=O)(=O)NCCN1CCOCC1 [Compound 1341] |  |  |  | 250 | Inflammatory reaction distinctly attenuated |  |  |  |  |  |  |  |  |  |  |  |  |
| O=C(O)CCCCCCCCCCCNS(=O)(=O)c1ccc(Cl)c(C(=O)c2cccs2)c1 [Compound 1813] |  |  |  |  |  |  |  |  |  |  |  |  | 1000 | > 50000 | 181 | 2000 | 11000 |
